Assay: method code SF-AS, from DOI: 10.1007/bf00778146

SMILES | logP
COc1ccc(C2OCC(CO)(Nc3nc(N4CC4)nc(N4CC4)n3)CO2)cc1OC (stereo unspecified) | 0.89
CCC(CO)(CO)Nc1nc(N2CC2)nc(N2CC2)n1 | -0.32
CC(CO)(CO)Nc1nc(N2CC2)nc(N2CC2)n1 | -0.75
OCC1(Nc2nc(N3CC3)nc(N3CC3)n2)COC(c2ccccc2)OC1 (stereo unspecified) | 0.62
OCC(CO)(CO)Nc1nc(N2CC2)nc(N2CC2)n1 | -1.76
CCC1(Nc2nc(N3CC3)nc(N3CC3)n2)COC(C)(C)OC1 | 0.85
CC(C)C1OCC(CO)(Nc2nc(N3CC3)nc(N3CC3)n2)CO1 (stereo unspecified) | 0.22
OCC(CO)Nc1nc(N2CC2)nc(N2CC2)n1 | -1.54
CC1(C)OCC(Nc2nc(N3CC3)nc(N3CC3)n2)CO1 | 0.11
OCC1(Nc2nc(N3CC3)nc(N3CC3)n2)COC(c2ccco2)OC1 (stereo unspecified) | 0.27
CC1(C)OCC(CO)(Nc2nc(N3CC3)nc(N3CC3)n2)CO1 | -0.52

From the SangsterLogP compilation
